Results from patent US5187157A, “Peptide boronic acid inhibitors of trypsin-like proteases” (Du Pont Merck Pharmaceutical Company, priority 1988, dated 1993).
Residues, ends and D or L forms follow the SMILES beside them. *: point of attachment. X1 = CC1(C)C2CC3OB(C(CCCNC(=N)N)N*)OC3(C)C1C2; X2 = CC1(C)C2CC3OB(C(CCCSC(=N)N)N*)OC3(C)C1C2; X3 = CC1(C)C2CC3OB(C(CCCN)N*)OC3(C)C1C2; Boc = CC(C)(C)OC(=O)*

What was measured:
[1] = target: T1, Human thrombin (Homo sapiens, UniProt P00734); test: Inhibition of Thrombin (Esterase Activity); assay type: biochemical; settings: for Percent Activity: activity remaining 10 to 20 min after initiation
T1 construct: purchased R.Q.P. Laboratories, South Bend, IN Lot HT102
Experimental: (§1) In the Examples which follow, the hydrolytic activity of each enzyme is measured in both the presence and absence of inhibitor and the percent enzyme activity determined. […] A steady state is reached fairly rapidly and nears completion within 5 min. Activity is evaluated between 10-20 min after the components are mixed to insure that reaction components are at equilibrium. The lowest concentration of inhibitor tested is determined by the estimated concentration of enzyme. […] The maintenance of pseudo-first-order reaction conditions and the sensitivity of the respective assays sets the lowest limit level of inhibitor tested at 10 nM for kallikrein inhibitors and 5 nM for thrombin inhibitors.
A stock solution of thrombin was prepared in 0.010M PIPES Buffer, pH 6.0, containing 0.75 M sodium chloride. […] The initial concentration of substrate was 0.10 mM and the concentration of thrombin was 1.0 nM (based on weight).

[2] = target: T2, Human plasma kallikrein (Homo sapiens, UniProt P03952); test: Inhibition of Human Plasma Kallikrein; assay type: biochemical; settings: activity remaining 10 to 20 min after initiation
T2 construct: purchased Protogen AG (Switzerland)
Experimental: as §1
Human plasma kallikrein was obtained from Protogen AG (Switzerland). The specific activity as described by the supplier is 15 units per mg. A unit is defined as the quantity of enzyme required to hydrolyze 1 μmole of substrate, H-(D)Pro-Phe-Arg-p-nitroanilide (Kabi S2302), per min at a substrate concentration of 0.50 mM at 25° in 50 mM potassium phosphate buffer, pH 8.0.

T2 sequence (P03952 391-638 limits assumed): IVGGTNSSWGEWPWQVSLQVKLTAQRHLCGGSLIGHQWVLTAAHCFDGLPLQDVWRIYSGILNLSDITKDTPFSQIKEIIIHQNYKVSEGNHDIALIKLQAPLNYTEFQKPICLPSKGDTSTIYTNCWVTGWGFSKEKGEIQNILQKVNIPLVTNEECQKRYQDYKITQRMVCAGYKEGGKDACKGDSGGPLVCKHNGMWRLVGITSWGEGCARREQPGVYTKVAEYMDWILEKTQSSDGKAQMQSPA
T2 sequence (P03952 20-390 partner limits assumed): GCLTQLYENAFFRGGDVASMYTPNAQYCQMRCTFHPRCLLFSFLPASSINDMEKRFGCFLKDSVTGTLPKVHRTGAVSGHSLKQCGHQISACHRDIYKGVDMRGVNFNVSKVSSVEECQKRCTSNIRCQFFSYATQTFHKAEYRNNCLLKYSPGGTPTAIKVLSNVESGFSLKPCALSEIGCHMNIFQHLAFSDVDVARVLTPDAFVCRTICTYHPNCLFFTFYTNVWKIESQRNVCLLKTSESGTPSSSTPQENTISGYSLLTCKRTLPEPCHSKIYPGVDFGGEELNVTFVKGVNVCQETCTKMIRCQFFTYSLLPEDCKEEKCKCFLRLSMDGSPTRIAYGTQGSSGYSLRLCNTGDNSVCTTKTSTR

**Q.** For Br.Br.CC(N)C(=O)NC(Cc1ccccc1)C(=O)NC(CCCCSC(=N)N)B1OC(C)(C)C(C)(C)O1 (stereo not drawn) [H-Ala-Phe-(D,L)boroHomoIrg-C6 H12.2HBr], which “Percent Activity” value ([1]; inhibitor 10000 nM) is on record?
**A.** 47%

**Q.** Which “Percent Activity” value ([1]; inhibitor 10 nM) does the source give for CC(C)CC(N)C(=O)NCC(=O)NC(CC(C)C)C(=O)NC(C)C(=O)NC(CCCNC(=N)N)B1OC2CC3CC(C3(C)C)C2(C)O1.Cl.O=S(=O)(O)c1ccccc1 (stereo not drawn) [H-Leu-Gly-Leu-Ala-boroArg-C10 H16.HCl.benzene sulfonic acid] (H-LGLA-X1; configuration not given here) here?
**A.** 25%

**Q.** With Br.Br.CC(=O)NC(C)C(=O)NC(CCCCN)C(=O)NC(CCCSC(=N)N)B1OC2CC3CC(C3(C)C)C2(C)O1 (stereo not drawn) [Ac--Ala--Lys--boroIrg--C10 H16.2HBr, Ac-Ala-Lys-boroIrg-C10 H16.2HBr] as the molecule, how does the “Percent Activity” value ([1]; inhibitor 1000 nM) read?
**A.** 68%

**Q.** With CC(C)(C)OC(=O)NC(Cc1ccccc1)C(=O)NC(Cc1ccccc1)C(=O)NC(CCCN)B1OC2CC3CC(C3(C)C)C2(C)O1.O=S(=O)(O)c1ccccc1 (stereo not drawn) [Boc--(D)Phe--Phe--boroOrn--C10 H16.BSA, Boc-(D)Phe-Phe-boroOrn-C10 H16.benzene sulfonic acid] as the molecule, how does the “Percent Activity” value ([2]; inhibitor 10000 nM) read?
**A.** 39%

**Q.** Which “Percent Activity” value ([1]; inhibitor 10 nM) does the source give for “Bz-Glu(OBu)-Gly-boroIrg-C10 H16.HBr [Bz--Glu(OBu--Gly--boroIrg--C10 H16.HBr]” here?
**A.** 59%

**Q.** For CC(C)(C)OC(=O)NC(Cc1ccccc1)C(=O)N1CCCC1C(=O)NC(CCCN)B1OC2CC3CC(C3(C)C)C2(C)O1.O=S(=O)(O)c1ccccc1 (stereo not drawn) [Boc--(D)Phe--Pro--boroOrn--C10 H16.BSA, Boc-(D)Phe-Pro-NH-CH[(CH2)3 NH2 ]BO2 -C10 H16.benzene sulfonic acid], which “Percent Activity” value ([2]; inhibitor 10000 nM) is on record?
**A.** 100%

**Q.** What about the “Percent Activity” value ([1]; inhibitor 100 nM) of the same molecule?
**A.** 18%

**Q.** For Br.CC(=O)NC(C)C(=O)NC(CCCCNC(=O)OC(C)(C)C)C(=O)NC(CCCSC(=N)N)B1OC2CC3CC(C3(C)C)C2(C)O1 (stereo not shown) [Ac--Ala--Lys(Boc)--boroIrg--C10 H16.HBr, Ac-Ala-Lys(Boc)-boroIrg-C10 H16.HBr], which “Percent Activity” value ([2]; inhibitor 50 nM) is on record?
**A.** 1.4%

**Q.** And the “Percent Activity” value ([1]; inhibitor 100 nM)?
**A.** 55%

**Q.** CC(NC(=O)OC(C)(C)C)C(=O)NC(Cc1ccccc1)C(=O)NC(CCCCN)B1OC(C)(C)C(C)(C)O1.Cl (stereo not drawn) [Boc--Ala--Phe--(D,L)boroLys--C6 H12.HCl, Boc-Ala-Phe-(D,L)boroLys-C6 H12.HCl] was tested. Which “Percent Activity” value ([2]; inhibitor 1000 nM) did it give?
**A.** 17%

**Q.** And the “Percent Activity” value ([1]; inhibitor 10000 nM)?
**A.** 46%

**Q.** For CC(C)CC(NC(=O)C(NC(=O)OC(C)(C)C)C(C)C)C(=O)NC(CCCCN)B1OC(C)(C)C(C)(C)O1.Cl (stereo not drawn) [Boc--(D)Val--Leu--boroLys--C6 H12.HCl, Boc-(D)Val-Leu-boroLys-C6 H12.benzene sulfonic acid], which “Percent Activity” value ([1]; inhibitor 1000 nM) is on record?
**A.** 21%

**Q.** Br.CC(C)CC(NC(=O)CNC(=O)C(CC(C)C)NC(=O)OC(C)(C)C)C(=O)NC(C)C(=O)NC(CCCSC(=N)N)B1OC2CC3CC(C3(C)C)C2(C)O1 (stereo not drawn) [Boc-Leu-Gly-Leu-Ala-boroIrg-C10 H16.HBr] (Boc-LGLA-X2; configuration not given here) was tested. Which “Percent Activity” value ([1]; inhibitor 10 nM) did it give?
**A.** 66%

**Q.** Br.CC1(C)C2CC3OB(C(CCCSC(=N)N)NC(=O)C(Cc4ccccc4)NC(=O)C4CCCN4C(=O)c4ccccc4)OC3(C)C1C2 (stereo not drawn) [Bz--Pro--Phe--boroIrg--C10 H16.HBr, Bz-Pro-Phe-boroIrg-C10 H16.HBr] was tested. Which “Percent Activity” value ([1]; inhibitor 1000 nM) did it give?
**A.** 21%

**Q.** For Br.Br.CC(N)C(=O)NC(Cc1ccccc1)C(=O)NC(CCCSC(=N)N)B1OC(C)(C)C(C)(C)O1 (stereo not drawn) [H--Ala--Phe--(D,L)boroIrg--C6 H12.2HBr, H-Ala-Phe-(D,L)boroIrg-C6 H12.2HBr], which “Percent Activity” value ([1]; inhibitor 10000 nM) is on record?
**A.** 23%

**Q.** What does the source list for “Boc-Ala-Phe-(D,L)boroIrg-C6 H12.HBr [Boc--Ala--Phe--(D,L)boroIrg--C6 H12.HBr]”?
**A.** Percent Activity ([2]; inhibitor 10 nM): 15%; Percent Activity ([1]; inhibitor 1000 nM): 28%

**Q.** How did the “Percent Activity” value ([2]; inhibitor 10 nM) turn out when Cl.NC(N)=NCCC[C@H](NC(=O)[C@H](Cc1ccccc1)NC(=O)[C@@H]1CCCN1C(=O)c1ccccc1)B(O)O [Bz--Pro--Phe--boroArg--OH.HCl, Bz-Pro-Phe-boroArg-OH.HCl] was run?
**A.** 16%

**Q.** What about the “Percent Activity” value ([1]; inhibitor 1000 nM) of the same molecule?
**A.** 18%

**Q.** For Br.CC1(C)C2CC3OB(C(CCCSC(=N)N)NC(=O)C4CCCN4C(=O)C(N)Cc4ccccc4)OC3(C)C1C2.Cl (stereo not drawn) [H--(D)Phe--Pro--boroIrg--C10 H16.HBr.HCl, H-(D)Phe-Pro-boroIrg-C10 H16.HBr,HCl], which “Percent Activity” value ([1]; inhibitor 5 nM) is on record?
**A.** 4%

**Q.** Which results are given for CC(=O)NC(Cc1ccccc1)C(=O)N1CCCC1C(=O)NC(CCCNC(=N)N)B1OC2CC3CC(C3(C)C)C2(C)O1.Cl (stereo not drawn) [Ac--(D)Phe--Pro--boroArg--C10 H16.HCl, Ac-(D)Phe-Pro-boroArg-C10 H16.HCl]?
**A.** Percent Activity ([2]; inhibitor 10 nM): 56%; Ki (suggested by inhibitor concentration and percent inhibition) ([1]; estimate from percent inhibition): in the picomolar range; inhibits thrombin ([1]; inhibitor 5 nM): 99%; Percent Activity ([1]; inhibitor 5 nM): 1%

**Q.** CC(=O)NC(Cc1ccccc1)C(=O)NC(CCCCN)B1OC(C)(C)C(C)(C)O1.Cl (stereo not shown) [Ac--Phe--boroLys--C6 H12.HCl, Ac-Phe-boroLys-C6 H12.benzene sulfonic acid] was tested. Which “Percent Activity” value ([1]; inhibitor 10000 nM) did it give?
**A.** 97%

**Q.** CC(C)CC(NC(=O)CNC(=O)C(CC(C)C)NC(=O)OC(C)(C)C)C(=O)NC(C)C(=O)NC(CCCN)B1OC2CC3CC(C3(C)C)C2(C)O1.O=S(=O)(O)c1ccccc1 (stereo not drawn) [Boc-Leu-Gly-Leu-Ala-boroOrn-C10 H16] (Boc-LGLA-X3; configuration not given here) was tested. Which “Percent Activity” value ([1]; inhibitor 1000 nM) did it give?
**A.** 24%

**Q.** CC1(C)C2CC3OB(C(CCCNC(=N)N)NC(=O)CNC(=O)C(CCC(=O)O)NC(=O)c4ccccc4)OC3(C)C1C2.O=S(=O)(O)c1ccccc1 (stereo not drawn) [Bz--Glu--Gly--boroArg--C10 H16.BSA, Bz-Glu-Gly-boroArg-C10 H16.benzene sulfonic acid] was tested. Which “Percent Activity” value ([2]; inhibitor 50 nM) did it give?
**A.** 39%

**Q.** What about the “Percent Activity” value ([1]; inhibitor 100 nM) of the same molecule?
**A.** 46%

**Q.** Which “Percent Activity” value ([2]; inhibitor 50 nM) does the source give for CCCCOC(=O)CC[C@H](NC(=O)c1ccccc1)C(=O)NCC(=O)NC(CCCNC(=N)N)B1OC2CC3CC(C3(C)C)C2(C)O1.O=S(=O)(O)c1ccccc1 (stereo partly shown) [Bz--Glu(OBu)--Gly--boroArg--C10 H16.BSA, Bz-Glu(OBu)-Gly-boroArg-C10 H16.benzene sulfonic acid] here?
**A.** 11%

**Q.** What about the “Percent Activity” value ([1]; inhibitor 10 nM) of the same molecule?
**A.** 52%

**Q.** For CC1(C)C2CC3OB(C(CCCNC(=N)N)NC(=O)C(Cc4ccccc4)NC(=O)C4CCCN4C(=O)c4ccccc4)OC3(C)C1C2.O=S(=O)(O)c1ccccc1 (stereo not drawn) [Bz--Pro--Phe--boroArg--C10 H16.BSA, Bz-Pro-Phe-boroArg-C10 H16.benzene sulfonic acid], which “Percent Activity” value ([2]; inhibitor 10 nM) is on record?
**A.** 15%

**Q.** And the “Percent Activity” value ([1]; inhibitor 1000 nM)?
**A.** 24%

**Q.** Br.CC1(C)C2CC3OB(C(CCCSC(=N)N)NC(=O)CNC(=O)C(CCC(=O)O)NC(=O)c4ccccc4)OC3(C)C1C2 (stereo not drawn) [Bz--Glu--Gly--boroIrg-- C10 H16.HBr, Bz-Glu-Gly-boroIrg-C10 H16.HBr] was tested. Which “Percent Activity” value ([1]; inhibitor 1000 nM) did it give?
**A.** 39%

**Q.** Which “Percent Activity” value ([1]; inhibitor 10 nM) does the source give for Br.Br.CC(C)CC(N)C(=O)NCC(=O)NC(CC(C)C)C(=O)NC(C)C(=O)NC(CCCSC(=N)N)B1OC2CC3CC(C3(C)C)C2(C)O1 (stereo not drawn) [H-Leu-Gly-Leu-Ala-boroIrg-C10 H16.2HBr] (H-LGLA-X2; configuration not given here) here?
**A.** 37%

**Q.** With “H-A]a-Phe-(D,L)boroLys-C6 H12.TFA.benzene sulfonic acid [H--Ala--Phe--D,L)boroLys--C6 H12.2HCl]” as the molecule, how does the “Percent Activity” value ([1]; inhibitor 10000 nM) read?
**A.** 89%

**Q.** Which “Percent Activity” value ([1]; inhibitor 100 nM) does the source give for Br.CC1(C)C2CC3OB(C(CCCSC(=N)N)NC(=O)CNC(=O)CNC(=O)C(Cc4ccccc4)NC(=O)OCc4ccccc4)OC3(C)C1C2 (stereo not drawn) [Z--Phe--Gly--Gly--boroIrg--C10 H16.HBr, Z-PheGly-Gly-boroIrg-C10 H16.HBr] here?
**A.** 46%

**Q.** How did the “Percent Activity” value ([1]; inhibitor 10 nM) turn out when Br.Br.CC1(C)C2CC3OB(C(CCCSC(=N)N)NC(=O)C(Cc4ccccc4)NC(=O)C(N)Cc4ccccc4)OC3(C)C1C2 (stereo not drawn) [H--(D)Phe--Phe-- boroIrg--C10 H16.2HBr, H-(D)Phe-Phe-boroIrg-C10 H16.2HBr] was run?
**A.** 49%
